Data reported in ChEMBL document CHEMBL4184249, “Structural development of tetrachlorophthalimides as liver X receptor β (LXRβ)-selective agonists with improved aqueous solubility” (Bioorg Med Chem Lett, 2018).
pEC50: −log10 of the molar value. The source made the active and inactive calls. The rule behind the calls is not given here.

Tests used:
[1] = molecular target: T1, Oxysterols receptor LXR-beta (Homo sapiens, UniProt P55055); experiment: Agonist activity at human LXRbeta expressed in HEK293 cells co-expressing CMX-beta-galactosidase incubated for 16 hrs by luciferase reporter gene assay; type: cell-based
T1 sequence (P55055 whole entry): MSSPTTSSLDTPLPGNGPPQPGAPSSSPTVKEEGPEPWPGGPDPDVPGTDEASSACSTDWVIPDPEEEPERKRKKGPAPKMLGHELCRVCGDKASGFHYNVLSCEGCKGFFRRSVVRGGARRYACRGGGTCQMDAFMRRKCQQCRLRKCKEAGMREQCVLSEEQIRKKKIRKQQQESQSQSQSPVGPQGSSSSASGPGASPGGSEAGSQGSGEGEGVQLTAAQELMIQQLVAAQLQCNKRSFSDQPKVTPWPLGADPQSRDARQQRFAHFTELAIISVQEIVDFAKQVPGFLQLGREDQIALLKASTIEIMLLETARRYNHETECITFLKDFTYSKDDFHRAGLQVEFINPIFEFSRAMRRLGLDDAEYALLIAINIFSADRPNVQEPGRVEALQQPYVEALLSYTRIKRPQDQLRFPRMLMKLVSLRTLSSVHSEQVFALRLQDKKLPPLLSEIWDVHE

[2] = molecular target: T2, Retinoic acid receptor alpha (Homo sapiens) (UniProt P10276); experiment: Agonist activity at GAL4-tagged RARalpha (unknown origin) expressed in HEK293 cells co-expressing CMX-beta-galactosidase at 0.3 to 30 uM incubated for 16 hrs by luciferase reporter gene assay; type: cell-based
T2 sequence (whole entry): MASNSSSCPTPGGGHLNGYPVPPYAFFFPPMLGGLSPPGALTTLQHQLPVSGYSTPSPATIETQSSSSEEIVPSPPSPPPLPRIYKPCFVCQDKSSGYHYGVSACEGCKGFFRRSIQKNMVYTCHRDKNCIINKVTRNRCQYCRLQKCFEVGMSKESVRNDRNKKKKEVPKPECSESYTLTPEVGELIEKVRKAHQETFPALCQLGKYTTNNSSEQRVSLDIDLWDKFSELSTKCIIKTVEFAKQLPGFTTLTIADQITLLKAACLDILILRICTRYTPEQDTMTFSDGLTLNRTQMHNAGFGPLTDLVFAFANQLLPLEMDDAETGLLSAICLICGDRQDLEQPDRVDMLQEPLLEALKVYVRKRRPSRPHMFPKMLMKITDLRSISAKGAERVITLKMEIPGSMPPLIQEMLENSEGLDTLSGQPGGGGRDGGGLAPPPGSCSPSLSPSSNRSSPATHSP

[3] = molecular target: T3, Retinoic acid receptor beta (Homo sapiens) (UniProt P10826); experiment: Agonist activity at GAL4-tagged RARbeta (unknown origin) expressed in HEK293 cells co-expressing CMX-beta-galactosidase at 0.3 to 30 uM incubated for 16 hrs by luciferase reporter gene assay; type: cell-based
T3 sequence (whole entry): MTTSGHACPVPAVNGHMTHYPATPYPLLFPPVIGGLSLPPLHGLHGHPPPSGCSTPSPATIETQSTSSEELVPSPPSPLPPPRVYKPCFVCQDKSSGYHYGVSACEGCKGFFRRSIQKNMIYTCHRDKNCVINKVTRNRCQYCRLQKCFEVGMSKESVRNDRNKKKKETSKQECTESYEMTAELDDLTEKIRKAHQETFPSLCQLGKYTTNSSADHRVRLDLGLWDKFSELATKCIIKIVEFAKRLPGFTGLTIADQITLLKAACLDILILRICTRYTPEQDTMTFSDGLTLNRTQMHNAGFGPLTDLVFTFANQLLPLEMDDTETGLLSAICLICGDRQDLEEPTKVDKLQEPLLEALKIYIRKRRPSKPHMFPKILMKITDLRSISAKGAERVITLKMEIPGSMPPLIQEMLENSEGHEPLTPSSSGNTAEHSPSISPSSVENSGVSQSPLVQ

[4] = molecular target: T4, Bile acid receptor (Homo sapiens) (UniProt Q96RI1); experiment: Agonist activity at GAL4-tagged FXR (unknown origin) expressed in HEK293 cells co-expressing CMX-beta-galactosidase at 0.3 to 30 uM incubated for 16 hrs by luciferase reporter gene assay; type: cell-based
T4 sequence (whole entry): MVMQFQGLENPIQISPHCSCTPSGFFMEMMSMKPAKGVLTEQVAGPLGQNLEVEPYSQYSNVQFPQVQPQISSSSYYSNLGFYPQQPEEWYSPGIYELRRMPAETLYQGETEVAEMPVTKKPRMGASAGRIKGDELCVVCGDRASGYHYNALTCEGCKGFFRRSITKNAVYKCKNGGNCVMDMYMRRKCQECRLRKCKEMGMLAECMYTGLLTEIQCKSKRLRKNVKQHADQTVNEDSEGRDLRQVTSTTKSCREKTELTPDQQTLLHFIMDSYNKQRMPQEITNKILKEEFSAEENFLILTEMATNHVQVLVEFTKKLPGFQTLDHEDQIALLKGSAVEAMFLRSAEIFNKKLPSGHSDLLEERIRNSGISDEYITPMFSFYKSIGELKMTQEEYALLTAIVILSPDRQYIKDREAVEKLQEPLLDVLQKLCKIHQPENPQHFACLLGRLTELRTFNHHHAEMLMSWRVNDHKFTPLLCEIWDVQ

[5] = molecular target: T5, Oxysterols receptor LXR-alpha (Homo sapiens) (UniProt Q13133); experiment: Agonist activity at LXRalpha ligand-binding domain (unknown origin) at 0.3 uM incubated for 1.5 hrs using fluorescein-labeled coactivator peptide by TR-FRET competitive binding assay relative to T0901317
T5 sequence (whole entry): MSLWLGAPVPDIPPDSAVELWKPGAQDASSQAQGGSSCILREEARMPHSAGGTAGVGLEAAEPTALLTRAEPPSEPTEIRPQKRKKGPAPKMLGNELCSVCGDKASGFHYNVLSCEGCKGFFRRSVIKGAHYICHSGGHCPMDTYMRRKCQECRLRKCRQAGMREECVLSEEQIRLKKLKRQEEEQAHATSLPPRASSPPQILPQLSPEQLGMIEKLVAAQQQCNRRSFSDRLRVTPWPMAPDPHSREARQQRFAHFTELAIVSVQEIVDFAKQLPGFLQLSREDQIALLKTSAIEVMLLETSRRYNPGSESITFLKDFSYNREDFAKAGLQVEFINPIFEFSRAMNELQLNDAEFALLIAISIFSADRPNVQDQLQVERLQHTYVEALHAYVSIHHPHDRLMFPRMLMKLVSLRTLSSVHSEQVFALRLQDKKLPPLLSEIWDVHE

[6] = molecular target: T6, Oxysterols receptor LXR-beta (Homo sapiens) (UniProt P55055); experiment: Agonist activity at LXRbeta in human THP1 cells assessed as increase in ABCA1 mRNA expression at 0.1 uM by real-time quantitative RT-PCR method; type: cell-based
T6 sequence (whole entry): T1 sequence (P55055 whole entry)

[7] = molecular target: Oxysterols receptor LXR-beta (Homo sapiens, UniProt P55055); experiment: Agonist activity at LXRbeta ligand-binding domain (unknown origin) incubated for 1.5 hrs using fluorescein-labeled coactivator peptide by TR-FRET competitive binding assay

pEC50 [1]: 6.25
Efficacy [2]: 6%
Activity [3]: inactive
Efficacy [4]: 9%
Efficacy [5]: 6%
Activity [6]: Active
Activity [7]: Dose-dependent effect
Compound: O=C1c2c(Cl)c(Cl)c(Cl)c(Cl)c2C(=O)N1c1ccccc1/C=C/c1cccs1
